Literature values, collected in patent US11020416B2, “Cancer chemotherapy employing halogenated analogs of thymidine” (priority 2015, dated 2021).
Where two headings read alike, the source gives them in different places.

Columns and labels:
PARP1 = PARP1 (Homo sapiens, UniProt P09874); conditions: solution; Pivazyan, 1992; cited from earlier work
[1] = test system: Melanoma, Carcinoma, Sarcoma; conditions: trial a, 1961, 16 patients, dose 3.1, iv, rad +/−, multiple cycles up to 5 months; cited from earlier work
[2] = test system: Oropharynx and Upper Extremity Tumors; conditions: trial b, 1962, 4 patients, dose 3.9, iv/ia, no radiation, single cycle 1 week; cited from earlier work
Carcinoma, Melanoma = conditions: trial c, 1962, 39 patients, dose 3.5, iv, no radiation, single cycle 1 week; cited from earlier work
Unresectable Sarcoma = conditions: trial d, 1987, 14 patients, dose 1.3, iv, with radiation, multiple cycles up to 5 months, cited from earlier work
[3] = test system: Colorectal Liver Metastases; conditions: trial f, 1989, 11 patients, dose 1.0, ia, no radiation, multiple cycles up to 5 months, cited from earlier work
[4] = 14-day continuous infusion alternating with 14 days without infusion; cited from earlier work
[5] = cited from earlier work; for [IdU] plasma, average steady-state: continuous iv; for [IU] plasma (iodouracil), average steady-state: continuous iv IdU
[6] = intraperitoneal, Morgan 1998, cited from earlier work
[7] = schedule G, 1.000 Grams/M^2/day, Kinsella 1988
[8] = schedule I, 0.781 Grams/M^2/day, Schultz 2004
[9] = schedule J, 0.625 Grams/M^2/day, Schultz 2004
[10] = schedule M, 0.500 Grams/M^2/day, Schultz 2004
[11] = schedule N, 0.400 Grams/M^2/day, Schultz 2004
[12] = schedule O, 0.300 Grams/M^2/day, Schultz 2004
[13] = schedule Q, 0.200 Grams/M^2/day, Schultz 2004
[14] = schedule R, 0.100 Grams/M^2/day, Schultz 2004
[15] = schedule A, 4.538 Grams/M^2/4 hr (2 liters), 64 millimolar

PARP1, sequence (P09874 whole entry, species assumed): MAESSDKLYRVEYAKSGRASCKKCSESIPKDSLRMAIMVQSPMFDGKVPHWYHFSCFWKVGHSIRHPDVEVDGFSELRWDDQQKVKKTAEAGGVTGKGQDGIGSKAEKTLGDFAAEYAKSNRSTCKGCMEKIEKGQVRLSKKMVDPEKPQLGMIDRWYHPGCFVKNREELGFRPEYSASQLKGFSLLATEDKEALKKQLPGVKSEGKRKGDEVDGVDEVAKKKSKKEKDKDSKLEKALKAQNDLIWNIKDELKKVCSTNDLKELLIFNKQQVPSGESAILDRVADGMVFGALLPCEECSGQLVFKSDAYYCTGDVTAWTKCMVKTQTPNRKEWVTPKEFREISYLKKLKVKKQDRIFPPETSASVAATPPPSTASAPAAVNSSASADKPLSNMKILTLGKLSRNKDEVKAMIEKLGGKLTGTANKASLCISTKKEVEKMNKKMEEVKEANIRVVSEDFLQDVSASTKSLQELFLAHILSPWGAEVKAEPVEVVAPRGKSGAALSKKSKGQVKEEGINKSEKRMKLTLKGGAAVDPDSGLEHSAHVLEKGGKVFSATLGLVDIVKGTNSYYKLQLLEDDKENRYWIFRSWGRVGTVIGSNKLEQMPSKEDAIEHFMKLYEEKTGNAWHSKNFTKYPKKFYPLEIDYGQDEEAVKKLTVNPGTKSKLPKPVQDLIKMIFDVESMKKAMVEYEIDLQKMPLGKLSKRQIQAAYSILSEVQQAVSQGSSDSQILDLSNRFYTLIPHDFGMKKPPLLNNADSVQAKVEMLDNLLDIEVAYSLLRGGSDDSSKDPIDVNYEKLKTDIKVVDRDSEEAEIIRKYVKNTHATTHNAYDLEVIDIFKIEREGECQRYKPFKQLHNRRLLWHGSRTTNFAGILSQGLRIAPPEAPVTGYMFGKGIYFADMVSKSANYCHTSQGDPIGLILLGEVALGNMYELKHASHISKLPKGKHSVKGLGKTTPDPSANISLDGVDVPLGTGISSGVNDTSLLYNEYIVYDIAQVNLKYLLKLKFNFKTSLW

SMILES: O=c1[nH]c(=O)n([C@H]2C[C@H](O)[C@@H](CO)O2)cc1I [Iododeoxyuridine, 5-iododeoxyuridine]
- Ki (PARP1): 18 µM
- objective improvement [1]: 38%
- subjective improvement [1]: 38%
- objective improvement [2]: 100%
- subjective improvement [2]: 100%
- objective improvement (Carcinoma, Melanoma): 26%
- objective improvement (Unresectable Sarcoma): 80%
- subjective improvement (Unresectable Sarcoma): more than half of patients
- subjective improvement (Unresectable Sarcoma; listed as IUDR): 57%
- objective improvement [3]: almost half of the patients
- objective improvement ([3]; listed as IUDR): 45%
- time after HAT withdrawal to myelosuppression nadir and return of blood cell counts to normal [4]: 7 to 10 days
- plasma concentration achieved ([5]; continuous circulatory infusion, historic trials d-f): > 1.0 µM
- elimination from patient plasma ([5]; pharmacokinetic analysis in patients): rapidly eliminated
- [IdU] plasma, average steady-state ([5]; schedule C, 1.200 Grams/M^2/day, Klecker 1985): 7.4 µM
- [IdU] plasma, average steady-state ([5]; schedule D, 1.200 Grams/M^2/day, Kinsella 1988): 3.4 µM
- [IdU] plasma, average steady-state ([5]; schedule E, 1.000 Grams/M^2/day, Klecker 1985): 5.6 µM
- [IU] plasma (iodouracil), average steady-state [5, 7]: >20 µM
- [IdU] plasma, average steady-state [5, 7]: 2.4 µM
- [IdU] plasma, average steady-state ([5]; schedule H, 0.850 Grams/M^2/day, Klecker 1985): 4.5 µM
- [IU] plasma (iodouracil), average steady-state [5, 8]: 21.8 µM
- [IdU] plasma, average steady-state [5, 8]: 1.5 µM
- [IU] plasma (iodouracil), average steady-state [5, 9]: 13.9 µM
- [IdU] plasma, average steady-state [5, 9]: 1.3 µM
- [IdU] plasma, average steady-state ([5]; schedule K, 0.500 Grams/M^2/day, Klecker 1985): 2.9 µM
- [IdU] plasma, average steady-state ([5]; schedule L, 0.500 Grams/M^2/day, Kinsella 1988): 1.3 µM
- [IU] plasma (iodouracil), average steady-state [5, 10]: 6.0 µM
- [IdU] plasma, average steady-state [5, 10]: 0.92 µM
- [IU] plasma (iodouracil), average steady-state [5, 11]: 4.3 µM
- [IdU] plasma, average steady-state [5, 11]: 0.90 µM
- [IU] plasma (iodouracil), average steady-state [5, 12]: 3.0 µM
- [IdU] plasma, average steady-state [5, 12]: 0.57 µM
- [IdU] plasma, average steady-state ([5]; schedule P, 0.250 Grams/M^2/day, Klecker 1985): 1.1 µM
- [IU] plasma (iodouracil), average steady-state [5, 13]: 1.4 µM
- [IdU] plasma, average steady-state [5, 13]: 0.79 µM
- [IU] plasma (iodouracil), average steady-state [5, 14]: 0.38 µM
- [IdU] plasma, average steady-state [5, 14]: 0.51 µM
- Peritoneal AUC [6, 15]: 4099 µM·h
- Plasma AUC [6, 15]: 139 µM·h
- Plasma AUC ([6]; schedule F, 0.625 Grams/M^2/4 hr (2 liters), 9 millimolar): 4.38 µM·h
